Results published in ChEMBL document CHEMBL1201862, “PubChem BioAssay data set” (2004).
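Interpolation was linear, between the two tested concentrations surrounding the appropriate level; five concentrations were tested over 48 hours in 96-well plates. GI50 is the concentration that inhibits growth by half.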 The source made the active and inactive calls. Rule as the data show it: active = GI50 up to about 1.1 µM and inactive = higher.

Legend:
Test in all cases: DTP human tumour cell line panel, 48 h
786-0 = test system: 786-0
A498 = test system: A498
A549 = test system: A549
ACHN = test system: ACHN
BT-549 = test system: BT-549
CAKI-1 = test system: CAKI-1
CCRF-CEM = test system: CCRF-CEM
COLO 205 = test system: COLO 205
DU-145 = test system: DU-145
EKVX = test system: EKVX
HCC 2998 = test system: HCC 2998
HCT-116 = test system: HCT-116
HCT-15 = test system: HCT-15
HL-60 = test system: HL-60
HOP-62 = test system: HOP-62
HOP-92 = test system: HOP-92
HT-29 = test system: HT-29
Hs-578T = test system: Hs-578T
IGROV-1 = test system: IGROV-1
K562 = test system: K562
KM12 = test system: KM12
LOX IMVI = test system: LOX IMVI
M14 = test system: M14
MCF7 = test system: MCF7
MDA-MB-231 = test system: MDA-MB-231
MDA-MB-435 = test system: MDA-MB-435
MDA-N = test system: MDA-N
MOLT-4 = test system: MOLT-4
NCI-H226 = test system: NCI-H226
NCI-H23 = test system: NCI-H23
NCI-H460 = test system: NCI-H460
NCI-H522 = test system: NCI-H522
NCI/ADR-RES = test system: NCI/ADR-RES
OVCAR-3 = test system: OVCAR-3
OVCAR-4 = test system: OVCAR-4
OVCAR-5 = test system: OVCAR-5
OVCAR-8 = test system: OVCAR-8
PC-3 = test system: PC-3
RPMI-8226 = test system: RPMI-8226
RXF 393 = test system: RXF 393
SF-268 = test system: SF-268
SF-295 = test system: SF-295
SF-539 = test system: SF-539
SK-MEL-28 = test system: SK-MEL-28
SK-MEL-2 = test system: SK-MEL-2
SK-MEL-5 = test system: SK-MEL-5
SK-OV-3 = test system: SK-OV-3
SN12C = test system: SN12C
SNB-19 = test system: SNB-19
SNB-75 = test system: SNB-75
SR = test system: SR
SW-620 = test system: SW-620
T47D = test system: T47D
TK-10 = test system: TK-10
U-251 = test system: U-251
UACC-257 = test system: UACC-257
UACC-62 = test system: UACC-62
UO-31 = test system: UO-31
Malme-3M = test system: Malme-3M

CCCCN(C)C(=O)C1=C(C)NC(C)=C(C(=O)N(C)CCCC)C1
GI50 (786-0): > 100 µM (inactive)
GI50 (A498): > 100 µM (inactive)
GI50 (A549): > 100 µM (inactive)
GI50 (ACHN): > 100 µM (inactive)
GI50 (BT-549): > 100 µM (inactive)
GI50 (CAKI-1): > 100 µM (inactive)
GI50 (CCRF-CEM): 66.2 µM (inactive)
GI50 (COLO 205): > 100 µM (inactive)
GI50 (DU-145): > 100 µM (inactive)
GI50 (EKVX): > 100 µM (inactive)
GI50 (HCC 2998): > 100 µM (inactive)
GI50 (HCT-116): > 100 µM (inactive)
GI50 (HCT-15): > 100 µM
GI50 (HL-60): 54.1 µM (inactive)
GI50 (HOP-62): > 100 µM (inactive)
GI50 (HOP-92): > 100 µM (inactive)
GI50 (HT-29): > 100 µM (inactive)
GI50 (Hs-578T): > 100 µM (inactive)
GI50 (IGROV-1): > 100 µM (inactive)
GI50 (K562): 54.3 µM (inactive)
GI50 (KM12): > 100 µM (inactive)
GI50 (LOX IMVI): > 100 µM (inactive)
GI50 (M14): > 100 µM (inactive)
GI50 (MCF7): > 100 µM (inactive)
GI50 (MDA-MB-231): > 100 µM (inactive)
GI50 (MDA-MB-435): > 100 µM (inactive)
GI50 (MDA-N): > 100 µM (inactive)
GI50 (MOLT-4): > 100 µM (inactive)
GI50 (NCI-H226): > 100 µM (inactive)
GI50 (NCI-H23): > 100 µM (inactive)
GI50 (NCI-H460): > 100 µM (inactive)
GI50 (NCI-H522): > 100 µM (inactive)
GI50 (NCI/ADR-RES): > 100 µM (inactive)
GI50 (OVCAR-3): > 100 µM (inactive)
GI50 (OVCAR-4): > 100 µM (inactive)
GI50 (OVCAR-5): > 100 µM (inactive)
GI50 (OVCAR-8): > 100 µM (inactive)
GI50 (PC-3): > 100 µM (inactive)
GI50 (RPMI-8226): > 100 µM (inactive)
GI50 (RXF 393): > 100 µM (inactive)
GI50 (SF-268): > 100 µM (inactive)
GI50 (SF-295): > 100 µM (inactive)
GI50 (SF-539): > 100 µM (inactive)
GI50 (SK-MEL-28): > 100 µM (inactive)
GI50 (SK-MEL-2): > 100 µM (inactive)
GI50 (SK-MEL-5): > 100 µM (inactive)
GI50 (SK-OV-3): > 100 µM (inactive)
GI50 (SN12C): > 100 µM (inactive)
GI50 (SNB-19): > 100 µM (inactive)
GI50 (SNB-75): 50.7 µM (inactive)
GI50 (SR): 83.9 µM (inactive)
GI50 (SW-620): > 100 µM (inactive)
GI50 (T47D): 54.7 µM (inactive)
GI50 (TK-10): > 100 µM (inactive)
GI50 (U-251): > 100 µM (inactive)
GI50 (UACC-257): > 100 µM (inactive)
GI50 (UACC-62): > 100 µM (inactive)
GI50 (UO-31): 61.1 µM (inactive)

Nc1c(-c2nc3ccccc3o2)sc(=S)n1-c1ccc(Cl)cc1
GI50 (786-0): 8.57 µM (inactive)
GI50 (A498): 37.7 µM (inactive)
GI50 (A549): 13.2 µM (inactive)
GI50 (ACHN): 9.1 µM (inactive)
GI50 (BT-549): 31 µM (inactive)
GI50 (CAKI-1): 12.6 µM (inactive)
GI50 (CCRF-CEM): > 100 µM (inactive)
GI50 (COLO 205): 17.1 µM (inactive)
GI50 (DU-145): 12 µM (inactive)
GI50 (EKVX): 12.6 µM (inactive)
GI50 (HCC 2998): 1.27 µM (inactive)
GI50 (HCT-116): 12.3 µM (inactive)
GI50 (HCT-15): 26.1 µM
GI50 (HL-60): > 100 µM (inactive)
GI50 (HOP-62): 5.11 µM (inactive)
GI50 (HOP-92): 21.7 µM (inactive)
GI50 (HT-29): 37.4 µM (inactive)
GI50 (Hs-578T): 12.8 µM (inactive)
GI50 (IGROV-1): 17.7 µM (inactive)
GI50 (K562): 0.474 µM (active)
GI50 (KM12): 22.4 µM (inactive)
GI50 (M14): 15.4 µM (inactive)
GI50 (MCF7): 5.07 µM (inactive)
GI50 (MDA-MB-231): 19.3 µM (inactive)
GI50 (MDA-MB-435): 17.3 µM (inactive)
GI50 (MDA-N): 21.4 µM (inactive)
GI50 (MOLT-4): > 100 µM (inactive)
GI50 (Malme-3M): 19.1 µM (inactive)
GI50 (NCI-H226): 13.9 µM (inactive)
GI50 (NCI-H23): 13.9 µM (inactive)
GI50 (NCI-H460): 23 µM (inactive)
GI50 (NCI-H522): 14 µM (inactive)
GI50 (NCI/ADR-RES): 19.3 µM (inactive)
GI50 (OVCAR-3): 15.9 µM (inactive)
GI50 (OVCAR-4): 11 µM (inactive)
GI50 (OVCAR-5): 46.1 µM (inactive)
GI50 (OVCAR-8): 12.1 µM (inactive)
GI50 (PC-3): 21.7 µM (inactive)
GI50 (RPMI-8226): 82.6 µM (inactive)
GI50 (RXF 393): 23 µM (inactive)
GI50 (SF-268): 12.9 µM (inactive)
GI50 (SF-295): 10.6 µM (inactive)
GI50 (SF-539): 11.6 µM (inactive)
GI50 (SK-MEL-28): 13.9 µM (inactive)
GI50 (SK-MEL-2): 11.2 µM (inactive)
GI50 (SK-MEL-5): 17.2 µM (inactive)
GI50 (SK-OV-3): 15.5 µM (inactive)
GI50 (SN12C): 51.8 µM (inactive)
GI50 (SNB-19): 13.7 µM (inactive)
GI50 (SR): 51.5 µM (inactive)
GI50 (T47D): 2.58 µM (inactive)
GI50 (TK-10): 27.9 µM (inactive)
GI50 (U-251): 15.6 µM (inactive)
GI50 (UACC-257): 18 µM (inactive)
GI50 (UACC-62): 0.452 µM (active)
GI50 (UO-31): 29.4 µM (inactive)
